One series relates to aquatic organisms. To be noted: Triton X-100 and its break-down products; recent ecological studies; cited from earlier work.
Another series deals with pseudorabies virus (PRV). In kind it is cell-based. The note with it: S/D treatment 0.04%-0.06% detergent, IVIG-containing liquid, 17° C.±1° C., FIG. 9A.

We go through two substances from patent publication US12258540B2, “Environmentally compatible detergents for inactivation of lipid-enveloped viruses” (TAKEDA PHARMACEUTICAL COMPANY LIMITED, priority 2017, dated 2025).

Turning to “4-(1,1,3,3-tetramethylbutyl)phenol, ethoxylated [Triton X-100]”, in the series with aquatic organisms, the “endocrine disrupter behaviour in aquatic organisms” value is listed as “can potentially behave as endocrine disrupters in aquatic organisms”. For “4-tert-octylbenzyl alcohol polyethoxylate”, in the series on pseudorabies virus (PRV), the “inactivation kinetics compared to Triton X-100, PRV” value is recorded as “identical inactivation kinetics”.
